Measurements from PubChem BioAssay AID1963865 (Molecular Pharmacology Branch, DTP, NCI, 2024).

Test system: KRAS PDC multicell spheroid viability
Test: Anticancer human tumor 825966-067-R-J1-PDC patient-derived colon carcinoma cell line growth inhibition [KRAS2]
Conditions: for IC50: curve of first compound; for viability, T/C: stronger effect = lower value
Method in brief: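 KRAS-mutant tumor cells were grown as spheroids with HUVEC endothelial cells and human MSCs as stroma. Targeted agents were tested alone and with KRAS pathway inhibitors. Doses started at or near clinical Cmax, or 10 microM, descending half-log.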

[1] = second compound 0.0316 µM, first compound 0.0316 µM
[2] = second compound 0.0316 µM, first compound 0.1 µM
[3] = second compound 0.0316 µM, first compound 0.316 µM
[4] = second compound 0.0316 µM, first compound 1 µM
[5] = second compound 0.0316 µM, first compound 3.16 µM
[6] = second compound 0.1 µM, first compound 0.0316 µM
[7] = second compound 0.1 µM, first compound 0.1 µM
[8] = second compound 0.1 µM, first compound 0.316 µM
[9] = second compound 0.1 µM, first compound 1 µM
[10] = second compound 0.1 µM, first compound 3.16 µM
[11] = second compound 0.316 µM, first compound 0.0316 µM
[12] = second compound 0.316 µM, first compound 0.1 µM
[13] = second compound 0.316 µM, first compound 0.316 µM
[14] = second compound 0.316 µM, first compound 1 µM
[15] = second compound 0.316 µM, first compound 3.16 µM
[16] = second compound 1 µM, first compound 0.0316 µM
[17] = second compound 1 µM, first compound 0.1 µM
[18] = second compound 1 µM, first compound 0.316 µM
[19] = second compound 1 µM, first compound 1 µM
[20] = second compound 1 µM, first compound 3.16 µM
[21] = second compound 3.16 µM, first compound 0.0316 µM
[22] = second compound 3.16 µM, first compound 0.1 µM
[23] = second compound 3.16 µM, first compound 0.316 µM
[24] = second compound 3.16 µM, first compound 1 µM
[25] = second compound 3.16 µM, first compound 3.16 µM
[26] = second compound 0.0316 µM, first compound 10 µM
[27] = second compound 0.1 µM, first compound 10 µM
[28] = second compound 0.316 µM, first compound 10 µM
[29] = second compound 1 µM, first compound 10 µM
[30] = second compound 3.16 µM, first compound 10 µM
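Further: spheroids exposed to compounds for 7 days.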
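Wherever viability, T/C is given: 100% = DMSO vehicle control viability.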

SMILES | IC50 (second compound 0.0316 µM) | IC50 (second compound 0.1 µM) | IC50 (second compound 0.316 µM) | IC50 (second compound 1 µM) | IC50 (second compound 3.16 µM) | viability, T/C [1] | viability, T/C [2] | viability, T/C [3] | viability, T/C [4] | viability, T/C [5] | viability, T/C [6] | viability, T/C [7] | viability, T/C [8] | viability, T/C [9] | viability, T/C [10] | viability, T/C [11] | viability, T/C [12] | viability, T/C [13] | viability, T/C [14] | viability, T/C [15] | also measured
CC1COCCN1c1cc(-c2ccnn2C)c2ccnc(-c3ccn[nH]3)c2n1 (stereo not given) + C=CC(=O)N1CCN(c2nc(OCC3CCCN3C)nc3c2CCN(c2cccc4cccc(C)c24)C3)CC1CC#N | > 3.16 µM | > 3.16 µM | 0.208 µM | 0.0895 µM | 0.0145 µM | 102% | 69.1% | 56.7% | 73.8% | 46.4% | 114% | 63.6% | 46.8% | 70.6% | 49.5% | 119% | 65% | 41.6% | 61.1% | 21.7% | viability, T/C (second compound 0.0316 µM, first compound 0.01 µM): 118%; viability, T/C (second compound 0.1 µM, first compound 0.01 µM): 101%; viability, T/C (second compound 0.316 µM, first compound 0.01 µM): 94.5%; viability, T/C (second compound 1 µM, first compound 0.01 µM): 120%; viability, T/C [16]: 123%; viability, T/C [17]: 39.6%; viability, T/C [18]: 56.3%; viability, T/C [19]: 39.3%; viability, T/C [20]: 34.4%; viability, T/C (second compound 3.16 µM, first compound 0.01 µM): 64.1%; viability, T/C [21]: 20.2%; viability, T/C [22]: 23.1%; viability, T/C [23]: 9.83%; viability, T/C [24]: 15.4%; viability, T/C [25]: 25.3%
CC1OCC2(CCN(c3cnc(Sc4ccnc(N)c4Cl)c(N)n3)CC2)C1N (stereo not given) + C=CC(=O)N1CCN(c2nc(OCC3CCCN3C)nc3c2CCN(c2cccc4cccc(C)c24)C3)CC1CC#N | 8.77 µM | 8.78 µM | 6.86 µM | 7.18 µM | 5.79 µM | 105% | 97% | 92.5% | 82.3% | 106% | 84.6% | 75% | 114% | 83.5% | 89.9% | 94.5% | 83.5% | 90.4% | 107% | 115% | viability, T/C [26]: 44%; viability, T/C [27]: 44.9%; viability, T/C [28]: 26.4%; viability, T/C [16]: 87.2%; viability, T/C [17]: 105%; viability, T/C [18]: 97.7%; viability, T/C [19]: 97.3%; viability, T/C [20]: 121%; viability, T/C [29]: 29.1%; viability, T/C [21]: 81.4%; viability, T/C [22]: 116%; viability, T/C [23]: 102%; viability, T/C [24]: 110%; viability, T/C [25]: 99%; viability, T/C [30]: 5.73%
Cn1nccc1Nc1nccc(-c2cc3c(s2)C(C)(C)N(CCN2CCOCC2)C3=O)n1 + C=CC(=O)N1CCN(c2nc(OCC3CCCN3C)nc3c2CCN(c2cccc4cccc(C)c24)C3)CC1CC#N | > 10 µM | > 10 µM | > 10 µM | > 10 µM | 0.674 µM | 108% | 91.1% | 121% | 108% | 95.3% | 84% | 91.6% | 106% | 100% | 73.4% | 72.2% | 110% | 125% | 93.7% | 75.9% | viability, T/C [26]: 68.5%; viability, T/C [27]: 79.8%; viability, T/C [28]: 61.2%; viability, T/C [16]: 85.9%; viability, T/C [17]: 96.1%; viability, T/C [18]: 127%; viability, T/C [19]: 96%; viability, T/C [20]: 64.8%; viability, T/C [29]: 56.4%; viability, T/C [21]: 84.9%; viability, T/C [22]: 76.4%; viability, T/C [23]: 104%; viability, T/C [24]: 4.64%; viability, T/C [25]: 27.8%; viability, T/C [30]: 57.8%
